Data on 1 compound can be found in article PMC5218480 (PLoS ONE, 2017).

This experiment concerns MV-4-11 cells. Description: Gene expression microarray analysis (Affymetrix PrimeView) and GSEA. It counts as cell-based, human. The arrangement: RFU PODN (11730768_x_at) / Fold change /veh PODN (11730768_x_at) / RFU LINC00158 (11744669_a_at) / Fold change /veh LINC00158 (11744669_a_at) / RFU DUSP10 (11751237_a_at) / Fold change /veh DUSP10 (11751237_a_at) / RFU ID3 (11757404_x_at) / Fold change /veh ID3 (11757404_x_at) / RFU PLEKHG5 (11737974_s_at) / Fold change /veh PLEKHG5 (11737974_s_at) / RFU LRRC4B (11730491_at) / Fold change /veh LRRC4B (11730491_at) / RFU GIMAP4 (11747438_a_at) / Fold change /veh GIMAP4 (11747438_a_at) / RFU KRT8 (11758183_x_at) / Fold change /veh KRT8 (11758183_x_at) / RFU CNN1 (11734310_a_at) / Fold change /veh CNN1 (11734310_a_at) / RFU VPS37D (11726825_at) / Fold change /veh VPS37D (11726825_at) / RFU C10orf10 (11716522_x_at) / Fold change /veh C10orf10 (11716522_x_at) / RFU KIR2DL2 /// KIR2DL4 /// KIR2DL5A /// KIR2DL5B /// KIR2DS1 /// KIR2DS2 /// KIR2DS3 /// KIR2DS4 /// KIR3DL3 /// KIR3DL3 /// KIR3DS1 (11738374_at) / Fold change /veh KIR2DL2 /// KIR2DL4 /// KIR2DL5A /// KIR2DL5B /// KIR2DS1 /// KIR2DS2 /// KIR2DS3 /// KIR2DS4 /// KIR3DL3 /// KIR3DL3 /// KIR3DS1 (11738374_at) / RFU C1QL1 (11718748_at) / Fold change /veh C1QL1 (11718748_at) / RFU TMPRSS4 (11747572_a_at) / Fold change /veh TMPRSS4 (11747572_a_at) / RFU HAMP (11756126_x_at) / Fold change /veh HAMP (11756126_x_at) / RFU RNFT2 (11725882_a_at) / Fold change /veh RNFT2 (11725882_a_at) / RFU NR4A2 (11747474_a_at) / Fold change /veh NR4A2 (11747474_a_at) / RFU ABCC12 (11746883_a_at) / Fold change /veh ABCC12 (11746883_a_at) / RFU TMEM136 (11760407_x_at) / Fold change /veh TMEM136 (11760407_x_at) / RFU CLDN22 /// WWC2 (11732394_at) / Fold change /veh CLDN22 /// WWC2 (11732394_at) / RFU HLA-DPB1 (11760878_x_at) / Fold change /veh HLA-DPB1 (11760878_x_at) / RFU SPINT1 (11716480_a_at) / Fold change /veh SPINT1 (11716480_a_at) / RFU GAP43 (11754022_s_at) / Fold change /veh GAP43 (11754022_s_at) / RFU A4GNT (11735810_at) / Fold change /veh A4GNT (11735810_at) / RFU PRB3 (11715151_x_at) / Fold change /veh PRB3 (11715151_x_at) / RFU TUBB4B (11761932_at) / Fold change /veh TUBB4B (11761932_at) / RFU CAPN14 (11732068_a_at) / Fold change /veh CAPN14 (11732068_a_at) / RFU TMCC2 (11721928_a_at) / Fold change /veh TMCC2 (11721928_a_at) / RFU IRGQ (11745062_a_at) / Fold change /veh IRGQ (11745062_a_at) / RFU FAM174B (11720279_a_at) / Fold change /veh FAM174B (11720279_a_at) / RFU TMPRSS4 (11748680_a_at) / Fold change /veh TMPRSS4 (11748680_a_at) / RFU FAM212B (11763350_a_at) / Fold change /veh FAM212B (11763350_a_at) / RFU PLEKHG5 (11743358_a_at) / Fold change /veh PLEKHG5 (11743358_a_at) / RFU ZSCAN30 (11745921_a_at) / Fold change /veh ZSCAN30 (11745921_a_at) / RFU CMKLR1 (11741424_a_at) / Fold change /veh CMKLR1 (11741424_a_at) / RFU LOC101060620 /// MAPK8IP1 (11723275_at) / Fold change /veh LOC101060620 /// MAPK8IP1 (11723275_at) / RFU SPTSSB (11747773_x_at) / Fold change /veh SPTSSB (11747773_x_at) / RFU PRSS12 (11739890_at) / Fold change /veh PRSS12 (11739890_at) / RFU BIN1 (11741810_x_at) / Fold change /veh BIN1 (11741810_x_at) / RFU WNT11 (11732464_a_at) / Fold change /veh WNT11 (11732464_a_at) / RFU C10orf10 (11716521_a_at) / Fold change /veh C10orf10 (11716521_a_at) / RFU C5orf56 (11738089_at) / Fold change /veh C5orf56 (11738089_at) / RFU CYB561 (11721691_x_at) / Fold change /veh CYB561 (11721691_x_at) / RFU ANKRD19P (11752326_a_at) / Fold change /veh ANKRD19P (11752326_a_at) / RFU OR2T12 /// OR2T33 /// OR2T8 (11738714_s_at) / Fold change /veh OR2T12 /// OR2T33 /// OR2T8 (11738714_s_at) / RFU VCAN (11748164_a_at) / Fold change /veh VCAN (11748164_a_at) / RFU JSRP1 (11732532_at) / Fold change /veh JSRP1 (11732532_at) / RFU KRTAP10-11 (11738290_x_at) / Fold change /veh KRTAP10-11 (11738290_x_at) / RFU MYO3A (11730013_a_at) / Fold change /veh MYO3A (11730013_a_at) / RFU EBF3 (11725865_a_at) / Fold change /veh EBF3 (11725865_a_at) / RFU CAMK2N1 (11719241_x_at) / Fold change /veh CAMK2N1 (11719241_x_at) / RFU C5orf56 (11738088_a_at) / Fold change /veh C5orf56 (11738088_a_at) / RFU OLFML3 (11715873_a_at) / Fold change /veh OLFML3 (11715873_a_at) / RFU LOC100653217 /// NTM (11731650_a_at) / Fold change /veh LOC100653217 /// NTM (11731650_a_at) / RFU MAPK11 (11762145_a_at) / Fold change /veh MAPK11 (11762145_a_at) / RFU FIZ1 (11724087_x_at) / Fold change /veh FIZ1 (11724087_x_at) / RFU OASL (11726364_x_at) / Fold change /veh OASL (11726364_x_at) / RFU SOX15 (11748057_x_at) / Fold change /veh SOX15 (11748057_x_at) / RFU CD79A (11719716_a_at) / Fold change /veh CD79A (11719716_a_at) / RFU HIST1H1D (11736915_at) / Fold change /veh HIST1H1D (11736915_at) / RFU CASKIN2 (11723855_a_at) / Fold change /veh CASKIN2 (11723855_a_at) / RFU LOC730098 (11760151_x_at) / Fold change /veh LOC730098 (11760151_x_at) / RFU OR4N2 (11742367_at) / Fold change /veh OR4N2 (11742367_at) / RFU PRRT2 (11749266_a_at) / Fold change /veh PRRT2 (11749266_a_at) / RFU SNX32 (11753110_a_at) / Fold change /veh SNX32 (11753110_a_at) / RFU CDHR5 (11726645_a_at) / Fold change /veh CDHR5 (11726645_a_at) / RFU RCAN1 (11760418_a_at) / Fold change /veh RCAN1 (11760418_a_at) / RFU FAM167A (11723789_a_at) / Fold change /veh FAM167A (11723789_a_at) / RFU FAM26E (11764081_at) / Fold change /veh FAM26E (11764081_at) / RFU ISYNA1 (11749810_s_at) / Fold change /veh ISYNA1 (11749810_s_at) / RFU ACY1 (11761880_at) / Fold change /veh ACY1 (11761880_at) / RFU 11764098_at / Fold change /veh 11764098_at / RFU SAMD14 (11745864_x_at) / Fold change /veh SAMD14 (11745864_x_at) / RFU NPB (11741838_a_at) / Fold change /veh NPB (11741838_a_at) / RFU TMPRSS6 (11731388_a_at) / Fold change /veh TMPRSS6 (11731388_a_at) / RFU KRTAP10-2 (11738614_at) / Fold change /veh KRTAP10-2 (11738614_at) / RFU ARHGAP8 /// PRR5-ARHGAP8 (11727945_x_at) / Fold change /veh ARHGAP8 /// PRR5-ARHGAP8 (11727945_x_at) / RFU KRTAP5-7 /// NADSYN1 (11734609_at) / Fold change /veh KRTAP5-7 /// NADSYN1 (11734609_at) / RFU RASL12 (11751679_a_at) / Fold change /veh RASL12 (11751679_a_at) / RFU CDKN2B (11736163_a_at) / Fold change /veh CDKN2B (11736163_a_at) / RFU PRF1 (11729649_at) / Fold change /veh PRF1 (11729649_at) / RFU, ZNF638 /// ZNF638-IT1 / Fold change vs veh, ZNF638 /// ZNF638-IT1 / RFU, PANK3 / Fold change vs veh, PANK3 / RFU, SH3YL1 / Fold change vs veh, SH3YL1 / RFU, ZEB2 / Fold change vs veh, ZEB2 / RFU, NRIP1 / Fold change vs veh, NRIP1 / RFU, PTTG1IP / Fold change vs veh, PTTG1IP / RFU, CAPN2 / Fold change vs veh, CAPN2 / RFU, MED14 / Fold change vs veh, MED14 / RFU, SNORA58 / Fold change vs veh, SNORA58 / RFU, C1orf63 / Fold change vs veh, C1orf63 / RFU, LRRFIP1 / Fold change vs veh, LRRFIP1 / RFU, NDUFAF7 / Fold change vs veh, NDUFAF7 / RFU, SLC12A2 / Fold change vs veh, SLC12A2 / RFU, IBTK / Fold change vs veh, IBTK / RFU, ESF1 / Fold change vs veh, ESF1 / Fold change vs veh, TMEM50B / RFU, TAOK1 / Fold change vs veh, TAOK1 / RFU, ACBD3 / Fold change vs veh, ACBD3 / RFU, TMA16 / Fold change vs veh, TMA16 / RFU, RWDD3 / Fold change vs veh, RWDD3 / RFU, BCAT1 / Fold change vs veh, BCAT1 / RFU, EDEM3 / Fold change vs veh, EDEM3 / RFU, TMEM33 / Fold change vs veh, TMEM33 / RFU, WDR75 / Fold change vs veh, WDR75 / RFU, AHCTF1 / Fold change vs veh, AHCTF1 / RFU, TFRC / Fold change vs veh, TFRC / RFU, ZDHHC17 / Fold change vs veh, ZDHHC17 / RFU, NOM1 / Fold change vs veh, NOM1 / RFU, ARL8B / Fold change vs veh, ARL8B / RFU, ZBTB11 / Fold change vs veh, ZBTB11 / RFU, TAMM41 / Fold change vs veh, TAMM41 / RFU, KIAA1704 /// LOC100996395 / Fold change vs veh, KIAA1704 /// LOC100996395 / RFU, ING1 / Fold change vs veh, ING1 / RFU, TRMT61B / Fold change vs veh, TRMT61B / RFU, FUBP3 / Fold change vs veh, FUBP3 / RFU, TP53 / Fold change vs veh, TP53 / RFU, TNKS2 / Fold change vs veh, TNKS2 / RFU, ZFP14 / Fold change vs veh, ZFP14 / RFU, ACTR2 / Fold change vs veh, ACTR2 / RFU, PPP3R1 / Fold change vs veh, PPP3R1 / RFU, PIK3R1 / Fold change vs veh, PIK3R1 / RFU, HNRNPA1 / Fold change vs veh, HNRNPA1 / RFU, RNF170 / Fold change vs veh, RNF170 / RFU, ZNF28 / Fold change vs veh, ZNF28 / RFU, RNGTT / Fold change vs veh, RNGTT / RFU, OGT / Fold change vs veh, OGT / RFU, BRD1 / Fold change vs veh, BRD1 / RFU, MARS / Fold change vs veh, MARS / RFU, ZNF655 / Fold change vs veh, ZNF655 / RFU, FAHD1 / Fold change vs veh, FAHD1 / RFU, BDP1 / Fold change vs veh, BDP1 / RFU, LRRCC1 / Fold change vs veh, LRRCC1 / RFU, ARID1A / Fold change vs veh, ARID1A / RFU, ZNF146 / Fold change vs veh, ZNF146 / RFU, ZNF330 / Fold change vs veh, ZNF330 / RFU, GPN3 / Fold change vs veh, GPN3 / RFU, C9orf123 / Fold change vs veh, C9orf123 / RFU, N4BP2L2 / Fold change vs veh, N4BP2L2 / RFU, ARFIP1 / Fold change vs veh, ARFIP1 / RFU, FAM179B / Fold change vs veh, FAM179B / RFU, BCL10 / Fold change vs veh, BCL10 / RFU, UHRF1BP1L / Fold change vs veh, UHRF1BP1L / RFU, BET1 / Fold change vs veh, BET1 / RFU, CNOT2 / Fold change vs veh, CNOT2 / RFU, ZNF268 / Fold change vs veh, ZNF268 / Fold change vs veh, ZNF507 / RFU, DGCR2 / Fold change vs veh, DGCR2 / RFU, WDSUB1 / Fold change vs veh, WDSUB1 / Fold change vs veh, HSP90B1 /// MIR3652 / RFU, ADSS / Fold change vs veh, ADSS / RFU, GK / Fold change vs veh, GK / RFU, ZNF148 / Fold change vs veh, ZNF148 / RFU, TAF9 / Fold change vs veh, TAF9 / RFU, SLC1A5 / Fold change vs veh, SLC1A5 / RFU, SLMO2 / Fold change vs veh, SLMO2 / RFU, ABCC4 / Fold change vs veh, ABCC4 / RFU, LOC101060439 /// RAP1B / Fold change vs veh, LOC101060439 /// RAP1B / RFU, RFX7 / Fold change vs veh, RFX7 / RFU, GTPBP10 / Fold change vs veh, GTPBP10 / RFU, CNEP1R1 / Fold change vs veh, CNEP1R1 / RFU, BIVM-ERCC5 /// ERCC5 / Fold change vs veh, BIVM-ERCC5 /// ERCC5 / RFU, ILF3 / Fold change vs veh, ILF3 / RFU 11762660_at / Fold change /veh 11762660_at / RFU VCAN (11757783_s_at) / Fold change /veh VCAN (11757783_s_at) / RFU DDX43 (11728927_at) / Fold change /veh DDX43 (11728927_at) / RFU KRT8 (11758188_x_at) / Fold change /veh KRT8 (11758188_x_at) / RFU NKD1 (11759106_at) / Fold change /veh NKD1 (11759106_at) / RFU SRD5A1 (11742802_a_at) / Fold change /veh SRD5A1 (11742802_a_at) / RFU TPSAB1 /// TPSB2 (11721975_s_at) / Fold change /veh TPSAB1 /// TPSB2 (11721975_s_at) / RFU GSTM3 (11746129_a_at) / Fold change /veh GSTM3 (11746129_a_at) / RFU IL23R (11737362_x_at) / Fold change /veh IL23R (11737362_x_at) / RFU TMEM51 (11727254_a_at) / Fold change /veh TMEM51 (11727254_a_at) / RFU PIWIL2 (11732686_x_at) / Fold change /veh PIWIL2 (11732686_x_at) / RFU ORM1 (11744905_x_at) / Fold change /veh ORM1 (11744905_x_at) / RFU CCDC152 (11743942_at) / Fold change /veh CCDC152 (11743942_at) / RFU ECM1 (11717891_a_at) / Fold change /veh ECM1 (11717891_a_at) / RFU IL23R (11748794_a_at) / Fold change /veh IL23R (11748794_a_at) / RFU TNFAIP8L3 (11732012_x_at) / Fold change /veh TNFAIP8L3 (11732012_x_at) / RFU MBOAT4 (11741988_at) / Fold change /veh MBOAT4 (11741988_at) / RFU 11764193_at / Fold change /veh 11764193_at / RFU TMEM53 (11763286_at) / Fold change /veh TMEM53 (11763286_at) / RFU MAGEB2 (11727129_at) / Fold change /veh MAGEB2 (11727129_at) / RFU TMEM200A (11744735_a_at) / Fold change /veh TMEM200A (11744735_a_at) / RFU CCDC152 (11751479_a_at) / Fold change /veh CCDC152 (11751479_a_at) / RFU FAM211A (11726209_a_at) / Fold change /veh FAM211A (11726209_a_at) / RFU RGS16 (11746705_a_at) / Fold change /veh RGS16 (11746705_a_at) / RFU VCAN (11755009_s_at) / Fold change /veh VCAN (11755009_s_at) / RFU RHOB (11743442_s_at) / Fold change /veh RHOB (11743442_s_at) / RFU RGS16 (11720943_a_at) / Fold change /veh RGS16 (11720943_a_at) / RFU RGS16 (11720944_at) / Fold change /veh RGS16 (11720944_at) / RFU, VPS4B / Fold change vs veh, VPS4B / RFU, CREB1 / Fold change vs veh, CREB1 / RFU, DNAJC13 / Fold change vs veh, DNAJC13 / RFU, GNAQ / Fold change vs veh, GNAQ / RFU, CDK5R1 / Fold change vs veh, CDK5R1 / RFU, ZRANB3 / Fold change vs veh, ZRANB3 / RFU, CUL4A / Fold change vs veh, CUL4A / RFU, CCNY / Fold change vs veh, CCNY / RFU, UFL1 / Fold change vs veh, UFL1 / RFU, COG3 / Fold change vs veh, COG3 / RFU, DIAPH2 / Fold change vs veh, DIAPH2 / RFU, SKA2 / Fold change vs veh, SKA2 / RFU, AFF3 / Fold change vs veh, AFF3 / RFU, LMF1 / Fold change vs veh, LMF1 / RFU, IPO11 / Fold change vs veh, IPO11 / RFU, DFFB / Fold change vs veh, DFFB / RFU, FOXP1 / Fold change vs veh, FOXP1 / RFU, CARD8 / Fold change vs veh, CARD8 / RFU, STRN3 / Fold change vs veh, STRN3 / RFU, ADK / Fold change vs veh, ADK / RFU, RASSF2 / Fold change vs veh, RASSF2 / RFU, WIPF1 / Fold change vs veh, WIPF1 / RFU, LARP1B / Fold change vs veh, LARP1B / RFU, RASA1 / Fold change vs veh, RASA1 / RFU, RB1 / Fold change vs veh, RB1 / RFU, PPFIA1 / Fold change vs veh, PPFIA1 / RFU, MAT2A / Fold change vs veh, MAT2A / RFU, CCT5 / Fold change vs veh, CCT5 / RFU, WDR92 / Fold change vs veh, WDR92 / RFU, CUX1 / Fold change vs veh, CUX1 / RFU, TTC7A / Fold change vs veh, TTC7A / RFU, TMEM135 / Fold change vs veh, TMEM135 / RFU, DEPTOR / Fold change vs veh, DEPTOR / RFU, CPM / Fold change vs veh, CPM / RFU, DNAJB6 / Fold change vs veh, DNAJB6 / RFU, CACNA2D3 / Fold change vs veh, CACNA2D3 / RFU, DTX4 / Fold change vs veh, DTX4 / RFU, TFCP2 / Fold change vs veh, TFCP2 / RFU, GMCL1 /// GMCL1P1 / Fold change vs veh, GMCL1 /// GMCL1P1 / RFU, AEBP2 / Fold change vs veh, AEBP2 / RFU, SNHG1 /// SNORD22 /// SNORD25 /// SNORD26 /// SNORD27 /// SNORD28 /// SNORD29 /// SNORD31 / Fold change vs veh, SNHG1 /// SNORD22 /// SNORD25 /// SNORD26 /// SNORD27 /// SNORD28 /// SNORD29 /// SNORD31 / Fold change (Aza/veh), C12orf56 (ProbeSet 11735607_a_at) / Fold change (ACY-1035/veh), C12orf56 (ProbeSet 11735607_a_at) / Fold change (Aza/veh), FGFR1OP (ProbeSet 11751329_s_at) / Fold change (ACY-1035/veh), FGFR1OP (ProbeSet 11751329_s_at) / Fold change (Aza/veh), VPS36 (ProbeSet 11739960_a_at) / Fold change (ACY-1035/veh), VPS36 (ProbeSet 11739960_a_at) / RFU SYPL1 (11715823_x_at) / Fold change /veh SYPL1 (11715823_x_at) / RFU IGFBP7 (11715501_s_at) / Fold change /veh IGFBP7 (11715501_s_at) / RFU REEP3 (11722064_at) / Fold change /veh REEP3 (11722064_at) / RFU IGLL1 (11728026_x_at) / Fold change /veh IGLL1 (11728026_x_at): dose or concentration left out as unconfirmed. The conditions noted are these: MV-4-11 cells, 48 hours.

On to `Nc1ccc(-c2cccs2)cc1NC(=O)c1ccc2c(c1)cc(C1CC1)n2CCN1CCOCC1` [ACY-1035], for which the “Fold change /veh TMCC2 (11721928_a_at)” value amounted to 1.04.
